Measurements taken from article PMC6287599, “2,6-Bis(2-Benzimidazolyl)Pyridine (BBP) Is a Potent and Selective Inhibitor of Small Conductance Calcium-Activated Potassium (SK) Channels” (Frontiers in Pharmacology, 2018).
Read-outs that look alike come from different tables or passages of the source. Positions of bridges follow the written chain, without caps; N, C: chain ends. No end group written: not given here.

How the values were obtained:
[1] = target: T1, rSK3 H491N (Rattus norvegicus, UniProt P70605, H486N); conditions: cited from earlier work
T1 construct: expressed in transfected cells; host or cells: HEK293 (transient, co-transfected with eGFP)

[2] = target: T2, hBK (Homo sapiens, UniProt Q12791); assay: Manual whole cell patch clamp, HEK293 transiently transfected with hBK; format: cell-based; conditions: paxilline 3 μM, after BBP 1 μM
T2 construct: expressed in transfected cells; host or cells: HEK293 (transient, co-transfected with eGFP)
Procedure: HEK293 cells were transiently co-transfected with the plasmid of interest (hBK, hSK1, hSK2, hSK3 WT, rSK3 H491N, or hIK) and eGFP using standard Lipofectamine™ 2000 (Thermo Fisher Scientific, Waltham, Massachussets, USA) transfection protocols. After transfection, cells were incubated overnight before the experiments.
Manual patch clamp experiments were performed at room temperature in the whole cell configuration with a HEKA EPC9 amplifier and the Patchmaster software (HEKA Elektronik, Ludwigshafen, Germany). All currents were elicited every 2 s using an incremental 200 ms voltage-ramp protocol starting at −80 mV and finishing at +80 mV from a holding potential of 0 mV. […]
To assess the effect of BBP on other calcium-activated potassium channels (hBK, hSK3 WT, rSK3 H491N, and hIK), each individual current was first normalized to its cell size using membrane's capacitance (pA/pF) before statistical analysis. […] Statistical significance between saline and the effect of both BBP and the corresponding reference compound was determined for each channel using one-way ANOVA analysis. […]
After testing BBP on the three SK channel subtypes, we decided to explore whether other calcium-activated potassium channels were affected by the compound. […] Finally, a positive control was used to inhibit the remaining current and quantify the total effect of BBP. […]

T2 sequence (Q12791 whole entry): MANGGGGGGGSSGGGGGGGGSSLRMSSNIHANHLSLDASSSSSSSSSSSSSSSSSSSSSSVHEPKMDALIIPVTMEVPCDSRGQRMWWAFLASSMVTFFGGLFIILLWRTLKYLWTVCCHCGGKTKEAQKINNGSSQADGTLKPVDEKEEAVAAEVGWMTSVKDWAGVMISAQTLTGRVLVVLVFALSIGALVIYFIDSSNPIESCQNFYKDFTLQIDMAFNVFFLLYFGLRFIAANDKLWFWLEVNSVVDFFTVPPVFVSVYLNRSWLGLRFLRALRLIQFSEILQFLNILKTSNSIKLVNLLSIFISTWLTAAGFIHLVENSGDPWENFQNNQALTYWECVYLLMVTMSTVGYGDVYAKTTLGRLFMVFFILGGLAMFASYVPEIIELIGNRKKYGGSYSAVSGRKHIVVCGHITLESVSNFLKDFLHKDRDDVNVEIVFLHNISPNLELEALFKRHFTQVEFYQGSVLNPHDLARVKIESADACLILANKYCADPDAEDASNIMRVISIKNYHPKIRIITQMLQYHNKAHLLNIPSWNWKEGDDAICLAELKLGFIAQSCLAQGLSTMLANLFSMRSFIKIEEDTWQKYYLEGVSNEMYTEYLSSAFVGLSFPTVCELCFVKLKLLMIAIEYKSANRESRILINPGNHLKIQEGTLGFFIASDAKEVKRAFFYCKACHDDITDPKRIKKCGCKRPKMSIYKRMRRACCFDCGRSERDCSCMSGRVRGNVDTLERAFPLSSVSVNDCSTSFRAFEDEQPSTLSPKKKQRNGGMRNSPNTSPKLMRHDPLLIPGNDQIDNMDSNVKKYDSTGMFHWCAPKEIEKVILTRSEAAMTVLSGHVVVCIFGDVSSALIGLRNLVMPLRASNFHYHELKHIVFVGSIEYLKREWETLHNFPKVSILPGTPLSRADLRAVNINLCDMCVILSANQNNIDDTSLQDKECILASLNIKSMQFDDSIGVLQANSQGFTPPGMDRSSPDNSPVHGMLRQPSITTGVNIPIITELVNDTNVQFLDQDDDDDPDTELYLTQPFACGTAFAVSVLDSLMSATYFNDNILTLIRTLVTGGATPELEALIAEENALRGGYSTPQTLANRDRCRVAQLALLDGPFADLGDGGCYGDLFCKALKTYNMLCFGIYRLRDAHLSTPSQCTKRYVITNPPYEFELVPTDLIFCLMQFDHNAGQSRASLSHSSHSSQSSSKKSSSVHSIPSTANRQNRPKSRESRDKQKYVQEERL

| Compound | Sensitivity of rSK3 H491N mutant to blocker ([1]; ref Lamy et al., 2010) | other results |
| --- | --- | --- |
| COc1cc2c3cc1Oc1cc(ccc1O)C[C@@H]1c4c(cc(OC)c(O)c4Oc4ccc(cc4)C[C@@H]3N(C)CC2)CC[N+]1(C)C [D-tubocurarine] | insensitive | – |
| CC(C)(O)[C@H]1O[C@H]2CC[C@@]3(C)[C@@](O)(CC[C@H]4Cc5c([nH]c6ccccc56)[C@@]43C)C2=CC1=O [paxilline, reference compound] | – | Effect on remaining hBK current (reference) [2]: totally inhibited |
| apamin (CNCKAPETALCARRCQQH-NH2; disulfide 1-11, 3-15; ends not checked; UniProt P01500 28-45, looked up) | insensitive | – |
| c1cc2cc(c1)C[n+]1ccc(c3ccccc31)NCc1ccc(cc1)CNc1cc[n+](c3ccccc13)C2 [UCL1684] | – | Sensitivity of rSK3 H491N mutant to blocker [1]: insensitive |
